Laboratory results as given in BindingDB's records for doi:10.1021/jm9806300 (Massachusetts General Hospital, 1999).

Biological target: muscle nicotinic acetylcholine receptor (Mus musculus)
Assay: The compound was tested for inhibitory potency against Nicotinic acetylcholine receptor in mouse muscle.

IC50: 33 µM
SMILES: CCCCCC1(CCO)N=N1 [2-(3-Pentyl-3H-diazirin-3-yl)-ethanol]
